Measured values: patent US6706663B2, “Herbicidal 3-heterocyclic substituted benzisothiazole and benzisoxazole compounds” (Wyeth, priority 2000, dated 2004)

What was measured:
ZEAMX (Corn, Field) = assay: Preemergence herbicidal evaluation; type: in vivo, Zea mays, L.; conditions: preemergence, rated 4-5 weeks after treatment
[1] = system: MOOVA (Monochoria vaginalis); assay: Flooded paddy, preemergence weed control; type: in vivo, Presl.; conditions: rated 3-4 weeks after treatment, 0-9 rating scale
Procedure, shortened: (§1)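 Visual 0-9 rating versus control, scoring stand, vigor, malformation, size, chlorosis and overall appearance. Silt loam soil, propagules in top 0.5 cm; flood depth 1.5–3 cm held for the whole test; greenhouse.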

[2] = system: TRZAWR (Wheat, Winter, cv Riband); assay: Preemergence herbicidal evaluation; type: in vivo, Triticum aestivum; conditions: preemergence, rated 4-5 weeks after treatment
Procedure, shortened: (§2)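 Visual 0–9 rating versus control (stand, vigor, malformation, size, chlorosis, overall appearance), scored four to five weeks post-treatment. Preemergence spray of aqueous acetone solution onto freshly seeded soil cups; plants grown under conventional greenhouse care.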

[3] = system: GLXMAW (Soybean, Williams); assay: Postemergence herbicidal evaluation; type: in vivo, Glycine max, (L.) Merr. cv Williams
Procedure, shortened: (§3)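 Seedlings grown about two weeks in flats, sprayed, then kept under standard greenhouse care. Rated visually 4–5 weeks after treatment on a 0–9 scale (stand, vigour, malformation, size, chlorosis, overall appearance) relative to untreated control; repeat tests averaged.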

[4] = system: IPOHE (Ipomoea hederacea); assay: Preemergence herbicidal evaluation; type: in vivo, (L.) Jacq.; conditions: preemergence, rated 4-5 weeks after treatment
[5] = system: ABUTH (Abutilon theophrasti); assay: Postemergence herbicidal evaluation; type: in vivo, Medic.
Procedure, shortened: as §3

ORYSAT (Rice, Tebonnet) [6] = assay: Flooded paddy, post-transplant rice tolerance; type: in vivo, Oryza sativa, (L.) Tebonnet; conditions: flooded paddy, post-transplant rice, rated 3-4 weeks after treatment, 0-9 rating scale
Procedure, shortened: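 Steps: transplant two ten-day-old seedlings into silt loam; flood to 1.5-3 cm above soil; apply herbicide post-transplant; maintain water on greenhouse benches; rate stand, vigor, malformation, size and chlorosis on a 0-9 visual scale versus control.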

ORYSAT (Rice, Tebonnet) [7] = assay: Postemergence herbicidal evaluation; type: in vivo, Oryza sativa, (L.) Tebonnet
Procedure, shortened: as §3

[8] = system: CHEAL (Chenopodium album); assay: Postemergence herbicidal evaluation; type: in vivo, L.
Procedure, shortened: as §3

[9] = system: CASOB (Cassia obtusifolia); assay: Postemergence herbicidal evaluation; type: in vivo, L.
Procedure, shortened: as §3

[10] = system: AMBEL (Ambrosia artemisifolia); assay: Postemergence herbicidal evaluation; type: in vivo, L.
Procedure, shortened: as §3

[11] = system: IPOHE (Ipomoea hederacea); assay: Postemergence herbicidal evaluation; type: in vivo, (L.) Jacq.
Procedure, shortened: as §3

[12] = system: ABUTH (Abutilon theophrasti); assay: Preemergence herbicidal evaluation; type: in vivo, Medic.; conditions: preemergence, rated 4-5 weeks after treatment
[13] = system: CHEAL (Chenopodium album); assay: Preemergence herbicidal evaluation; type: in vivo, L.; conditions: preemergence, rated 4-5 weeks after treatment
Procedure, shortened: as §2

[14] = system: CASOB (Cassia obtusifolia); assay: Preemergence herbicidal evaluation; type: in vivo, L.; conditions: preemergence, rated 4-5 weeks after treatment
Procedure, shortened: as §2

[15] = system: AMBEL (Ambrosia artemisifolia); assay: Preemergence herbicidal evaluation; type: in vivo, L.; conditions: preemergence, rated 4-5 weeks after treatment
Procedure, shortened: as §2

CYPIR (Cyperus iria) = assay: Flooded paddy, preemergence weed control; type: in vivo; conditions: rated 3-4 weeks after treatment, 0-9 rating scale
Procedure, shortened: as §1

[16] = system: ECHCG (Echinochloa crus-galli); assay: Preemergence herbicidal evaluation; type: in vivo, (L.) Beau; conditions: preemergence, rated 4-5 weeks after treatment
Procedure, shortened: as §2

SETVI (Setaria viridis) = assay: Preemergence herbicidal evaluation; type: in vivo, (L.) Beau; conditions: preemergence, rated 4-5 weeks after treatment
Procedure, shortened: as §2

[17] = system: GLXMAW (Soybean, Williams); assay: Preemergence herbicidal evaluation; type: in vivo, Glycine max, (L.) Merr. cv Williams; conditions: preemergence, rated 4-5 weeks after treatment

Compound: CN(C(=O)c1nsc2ccc(-n3c(=O)cc(C(F)(F)F)n(C)c3=O)cc12)c1ccc(Cl)cc1 [Compound 18, 1,2-benzisothiazole-3-carboxanilide, 4′-chloro-5-[3,6-dihydro-3-methyl-2,6-dioxo-4-(trifluoromethyl)-1(2H)-pyrimidinyl]-N-methyl-]
- ZEAMX preemergence herbicidal rating (ZEAMX (Corn, Field); Rate 0.0620 kg/ha): 7.0
- ZEAMX preemergence herbicidal rating (ZEAMX (Corn, Field); Rate 0.1250 kg/ha): 8.0
- ZEAMX preemergence herbicidal rating (ZEAMX (Corn, Field); Rate 0.2500 kg/ha): 8.0
- herbicidal rating, MOOVA ([1]; rate 0.0080 kg/ha): 0.0
- herbicidal rating, MOOVA ([1]; rate 0.0320 kg/ha): 9.0
- herbicidal rating, MOOVA ([1]; rate 0.1250 kg/ha): 9.0
- TRZAWR preemergence herbicidal rating ([2]; Rate 0.0620 kg/ha): 0.0
- TRZAWR preemergence herbicidal rating ([2]; Rate 0.1250 kg/ha): 4.0
- TRZAWR preemergence herbicidal rating ([2]; Rate 0.2500 kg/ha): 8.0
- Postemergence herbicidal rating, GLXMAW ([3]; rate 0.0320 kg/ha): 6.0
- Postemergence herbicidal rating, GLXMAW ([3]; rate 0.0620 kg/ha): 8.0
- Postemergence herbicidal rating, GLXMAW ([3]; rate 0.1250 kg/ha): 8.0
- Postemergence herbicidal rating, GLXMAW ([3]; rate 0.2500 kg/ha): 8.5
- IPOHE preemergence herbicidal rating ([4]; Rate 0.0620 kg/ha): 3.0
- IPOHE preemergence herbicidal rating ([4]; Rate 0.1250 kg/ha): 9.0
- IPOHE preemergence herbicidal rating ([4]; Rate 0.2500 kg/ha): 9.0
- Postemergence herbicidal rating, ABUTH ([5]; rate 0.0320 kg/ha): 9.0
- Postemergence herbicidal rating, ABUTH ([5]; rate 0.0620 kg/ha): 9.0
- Postemergence herbicidal rating, ABUTH ([5]; rate 0.1250 kg/ha): 9.0
- Postemergence herbicidal rating, ABUTH ([5]; rate 0.2500 kg/ha): 9.0
- herbicidal rating, ORYSAT (rice tolerance) (ORYSAT (Rice, Tebonnet) [6]; rate 0.0080 kg/ha): 0.0
- herbicidal rating, ORYSAT (rice tolerance) (ORYSAT (Rice, Tebonnet) [6]; rate 0.0320 kg/ha): 1.5
- herbicidal rating, ORYSAT (rice tolerance) (ORYSAT (Rice, Tebonnet) [6]; rate 0.1250 kg/ha): 5.0
- Postemergence herbicidal rating, ORYSAT (ORYSAT (Rice, Tebonnet) [7]; rate 0.0320 kg/ha): 2.0
- Postemergence herbicidal rating, ORYSAT (ORYSAT (Rice, Tebonnet) [7]; rate 0.0620 kg/ha): 3.0
- Postemergence herbicidal rating, ORYSAT (ORYSAT (Rice, Tebonnet) [7]; rate 0.1250 kg/ha): 5.0
- Postemergence herbicidal rating, ORYSAT (ORYSAT (Rice, Tebonnet) [7]; rate 0.2500 kg/ha): 5.5
- Postemergence herbicidal rating, CHEAL ([8]; rate 0.0320 kg/ha): 7.0
- Postemergence herbicidal rating, CHEAL ([8]; rate 0.0620 kg/ha): 7.0
- Postemergence herbicidal rating, CHEAL ([8]; rate 0.1250 kg/ha): 7.0
- Postemergence herbicidal rating, CHEAL ([8]; rate 0.2500 kg/ha): 9.0
- Postemergence herbicidal rating, CASOB ([9]; rate 0.0320 kg/ha): 0.0
- Postemergence herbicidal rating, CASOB ([9]; rate 0.0620 kg/ha): 1.0
- Postemergence herbicidal rating, CASOB ([9]; rate 0.1250 kg/ha): 2.0
- Postemergence herbicidal rating, CASOB ([9]; rate 0.2500 kg/ha): 6.0
- Postemergence herbicidal rating, AMBEL ([10]; rate 0.0320 kg/ha): 2.0
- Postemergence herbicidal rating, AMBEL ([10]; rate 0.0620 kg/ha): 9.0
- Postemergence herbicidal rating, AMBEL ([10]; rate 0.1250 kg/ha): 9.0
- Postemergence herbicidal rating, AMBEL ([10]; rate 0.2500 kg/ha): 9.0
- Postemergence herbicidal rating, IPOHE ([11]; rate 0.0320 kg/ha): 9.0
- Postemergence herbicidal rating, IPOHE ([11]; rate 0.0620 kg/ha): 9.0
- Postemergence herbicidal rating, IPOHE ([11]; rate 0.1250 kg/ha): 9.0
- Postemergence herbicidal rating, IPOHE ([11]; rate 0.2500 kg/ha): 9.0
- ABUTH preemergence herbicidal rating ([12]; Rate 0.0620 kg/ha): 9.0
- ABUTH preemergence herbicidal rating ([12]; Rate 0.1250 kg/ha): 9.0
- ABUTH preemergence herbicidal rating ([12]; Rate 0.2500 kg/ha): 9.0
- CHEAL preemergence herbicidal rating ([13]; Rate 0.0620 kg/ha): 9.0
- CHEAL preemergence herbicidal rating ([13]; Rate 0.1250 kg/ha): 9.0
- CHEAL preemergence herbicidal rating ([13]; Rate 0.2500 kg/ha): 9.0
- CASOB preemergence herbicidal rating ([14]; Rate 0.0620 kg/ha): 0.0
- CASOB preemergence herbicidal rating ([14]; Rate 0.1250 kg/ha): 1.0
- CASOB preemergence herbicidal rating ([14]; Rate 0.2500 kg/ha): 1.0
- AMBEL preemergence herbicidal rating ([15]; Rate 0.0620 kg/ha): 7.0
- AMBEL preemergence herbicidal rating ([15]; Rate 0.1250 kg/ha): 9.0
- AMBEL preemergence herbicidal rating ([15]; Rate 0.2500 kg/ha): 9.0
- herbicidal rating, CYPIR (CYPIR (Cyperus iria); rate 0.0080 kg/ha): 0.0
- herbicidal rating, CYPIR (CYPIR (Cyperus iria); rate 0.0320 kg/ha): 6.5
- herbicidal rating, CYPIR (CYPIR (Cyperus iria); rate 0.1250 kg/ha): 7.5
- ECHCG preemergence herbicidal rating ([16]; Rate 0.0620 kg/ha): 0.0
- ECHCG preemergence herbicidal rating ([16]; Rate 0.1250 kg/ha): 2.0
- ECHCG preemergence herbicidal rating ([16]; Rate 0.2500 kg/ha): 9.0
- SETVI preemergence herbicidal rating (SETVI (Setaria viridis); Rate 0.0620 kg/ha): 8.0
- SETVI preemergence herbicidal rating (SETVI (Setaria viridis); Rate 0.1250 kg/ha): 9.0
- SETVI preemergence herbicidal rating (SETVI (Setaria viridis); Rate 0.2500 kg/ha): 9.0
- GLXMAW preemergence herbicidal rating ([17]; Rate 0.0620 kg/ha): 0.0
- GLXMAW preemergence herbicidal rating ([17]; Rate 0.1250 kg/ha): 4.0
- GLXMAW preemergence herbicidal rating ([17]; Rate 0.2500 kg/ha): 5.0
